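Method: 48-hour compound exposure of cells in 96-well plates, five concentrations, linear interpolation of endpoints. TGI marks complete inhibition of growth.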
What was measured:
Test in all cases: DTP human tumour cell line panel, 48 h
[1] = test system: 786-0 renal
[2] = test system: A549 NSCLC
[3] = test system: CAKI-1 renal
[4] = test system: CCRF-CEM leukemia
[5] = test system: COLO 205 colon
[6] = test system: DU-145 prostate
[7] = test system: EKVX NSCLC
[8] = test system: HCC-2998 colon
[9] = test system: HCT-15 colon
[10] = test system: HL-60(TB) leukemia
[11] = test system: HOP-62 NSCLC
[12] = test system: HT29 colon
[13] = test system: IGROV1 ovarian
[14] = test system: K-562 leukemia
[15] = test system: KM12 colon
[16] = test system: LOX IMVI melanoma
[17] = test system: M14 melanoma
[18] = test system: MALME-3M melanoma
[19] = test system: MCF7 breast
[20] = test system: MDA-MB-231 breast
[21] = test system: MDA-N
[22] = test system: NCI-H23 lung
[23] = test system: OVCAR-8 ovarian
[24] = test system: PC-3 prostate
[25] = test system: RPMI-8226 leukemia
[26] = test system: RXF 393 renal
[27] = test system: SF-268 CNS
[28] = test system: SF-295 CNS
[29] = test system: SK-MEL-28 melanoma
[30] = test system: SK-MEL-5 melanoma
[31] = test system: SK-OV-3 ovarian
[32] = test system: SN12C renal
[33] = test system: SNB-75 CNS
[34] = test system: SR leukemia
[35] = test system: SW-620 colon
[36] = test system: T-47D breast
[37] = test system: TK-10 renal
[38] = test system: UACC-257 melanoma
[39] = test system: UACC-62 melanoma
[40] = test system: A498 renal
[41] = test system: ACHN renal
[42] = test system: BT-549 breast
[43] = test system: HCT-116 colon
[44] = test system: MDA-MB-435
[45] = test system: MOLT-4 leukemia
[46] = test system: NCI-H226 lung
[47] = test system: NCI-H460 lung
[48] = test system: NCI/ADR-RES ovarian
[49] = test system: OVCAR-5 ovarian
[50] = test system: SF-539 CNS
[51] = test system: SNB-19 CNS
[52] = test system: U251 CNS
[53] = test system: UO-31 renal
[54] = test system: NCI-H522 lung
[55] = test system: OVCAR-3 ovarian
[56] = test system: OVCAR-4 ovarian
[57] = test system: SK-MEL-2 melanoma
[58] = test system: HOP-92 NSCLC

Work on `COc1ccc(C(=O)/C=C/c2ccc(OCC(=N)N)cc2)cc1OC` yielded a TGI [1] of over 10 µM, a TGI [2] of over 10 µM and a TGI [3] of over 10 µM. The TGI [4] was 8.86 µM, the TGI [5] was over 10 µM and the TGI [6] was over 10 µM. It also gave a TGI [7] of over 10 µM, a TGI [8] of over 10 µM and a TGI [9] of over 10 µM. It also gave a TGI [10] of 4.82 µM, a TGI [11] of over 10 µM and a TGI [12] of over 10 µM. For the same compound, the TGI [13] was over 10 µM, the TGI [14] was over 10 µM and the TGI [15] was 8.31 µM. For the same compound, the TGI [16] was over 10 µM, the TGI [17] was over 10 µM and the TGI [18] was over 10 µM. It also gave a TGI [19] of over 10 µM, a TGI [20] of over 10 µM and a TGI [21] of over 10 µM. It also gave a TGI [22] of over 10 µM, a TGI [23] of over 10 µM and a TGI [24] of over 10 µM. The TGI [25] was over 10 µM, the TGI [26] was over 10 µM and the TGI [27] was over 10 µM. It also gave a TGI [28] of over 10 µM, a TGI [29] of over 10 µM and a TGI [30] of over 10 µM. For the same compound, the TGI [31] was over 10 µM, the TGI [32] was over 10 µM and the TGI [33] was 9.98 µM. The TGI [34] was 4.39 µM, the TGI [35] was over 10 µM and the TGI [36] was over 10 µM. The TGI [37] was over 10 µM, the TGI [38] was over 10 µM and the TGI [39] was over 10 µM.

In the case of `Cn1nc(Cc2ccc(Cl)cc2)n(N)c1=O`, the TGI [1] is reported as over 100 µM, the TGI [40] is reported as over 100 µM and the TGI [2] is reported as over 100 µM. The TGI [41] was over 100 µM, the TGI [42] was over 100 µM and the TGI [3] was over 100 µM. The TGI [6] was over 100 µM, the TGI [8] was over 100 µM and the TGI [43] was over 100 µM. The TGI [9] was over 100 µM, the TGI [12] was over 100 µM and the TGI [13] was over 100 µM. For the same compound, the TGI [14] was over 100 µM, the TGI [15] was over 100 µM and the TGI [18] was over 100 µM. It also gave a TGI [19] of over 100 µM, a TGI [20] of over 100 µM and a TGI [44] of over 100 µM. It also gave a TGI [21] of over 100 µM, a TGI [45] of over 100 µM and a TGI [46] of over 100 µM. For the same compound, the TGI [22] was over 100 µM, the TGI [47] was over 100 µM and the TGI [48] was over 100 µM. It also gave a TGI [49] of over 100 µM, a TGI [23] of over 100 µM and a TGI [24] of over 100 µM. For the same compound, the TGI [25] was over 100 µM, the TGI [26] was over 100 µM and the TGI [27] was over 100 µM. For the same compound, the TGI [28] was over 100 µM, the TGI [50] was over 100 µM and the TGI [29] was over 100 µM. It also gave a TGI [30] of over 100 µM, a TGI [32] of over 100 µM and a TGI [51] of over 100 µM. For the same compound, the TGI [33] was over 100 µM, the TGI [35] was over 100 µM and the TGI [36] was over 100 µM. It also gave a TGI [37] of over 100 µM, a TGI [52] of over 100 µM and a TGI [38] of over 100 µM. For the same compound, the TGI [39] was over 100 µM and the TGI [53] was over 100 µM.

In the case of `NCCCNCCCNCCCN`, the TGI [1] is reported as over 100 µM, the TGI [40] is reported as over 100 µM and the TGI [2] is reported as over 100 µM. It also gave a TGI [41] of over 100 µM, a TGI [42] of over 100 µM and a TGI [3] of over 100 µM. For the same compound, the TGI [5] was over 100 µM, the TGI [6] was over 100 µM and the TGI [7] was over 100 µM. For the same compound, the TGI [8] was over 100 µM, the TGI [43] was over 100 µM and the TGI [9] was over 100 µM. The TGI [10] was over 100 µM, the TGI [11] was over 100 µM and the TGI [12] was over 100 µM. For the same compound, the TGI [13] was over 100 µM, the TGI [14] was 72.9 µM and the TGI [15] was over 100 µM. The TGI [16] was over 100 µM, the TGI [17] was over 100 µM and the TGI [18] was over 100 µM. It also gave a TGI [19] of over 100 µM, a TGI [20] of over 100 µM and a TGI [44] of over 100 µM. The TGI [21] was over 100 µM, the TGI [45] was 42.4 µM and the TGI [46] was over 100 µM. It also gave a TGI [22] of over 100 µM, a TGI [54] of over 100 µM and a TGI [48] of over 100 µM. It also gave a TGI [55] of over 100 µM, a TGI [56] of over 100 µM and a TGI [49] of over 100 µM. It also gave a TGI [23] of over 100 µM, a TGI [24] of over 100 µM and a TGI [25] of 41.1 µM. For the same compound, the TGI [26] was over 100 µM, the TGI [27] was 8.96 µM and the TGI [28] was over 100 µM. It also gave a TGI [57] of over 100 µM, a TGI [29] of over 100 µM and a TGI [30] of over 100 µM. The TGI [31] was over 100 µM, the TGI [32] was over 100 µM and the TGI [51] was over 100 µM. For the same compound, the TGI [34] was 44.7 µM, the TGI [35] was over 100 µM and the TGI [36] was over 100 µM. It also gave a TGI [37] of over 100 µM, a TGI [52] of over 100 µM and a TGI [38] of over 100 µM. It also gave a TGI [39] of over 100 µM and a TGI [53] of over 100 µM.

For `CCc1nnc(CC)n1NCCCC(=O)O`, the TGI [1] was over 100 µM, the TGI [2] was over 100 µM and the TGI [41] was over 100 µM. The TGI [42] was over 100 µM, the TGI [4] was over 100 µM and the TGI [5] was over 100 µM. It also gave a TGI [6] of over 100 µM, a TGI [7] of over 100 µM and a TGI [8] of over 100 µM. The TGI [43] was over 100 µM, the TGI [9] was over 100 µM and the TGI [11] was over 100 µM. It also gave a TGI [58] of over 100 µM, a TGI [12] of over 100 µM and a TGI [13] of over 100 µM. For the same compound, the TGI [14] was over 100 µM, the TGI [15] was over 100 µM and the TGI [16] was over 100 µM. It also gave a TGI [17] of over 100 µM, a TGI [19] of over 100 µM and a TGI [20] of over 100 µM. It also gave a TGI [44] of over 100 µM, a TGI [21] of over 100 µM and a TGI [45] of over 100 µM. The TGI [22] was over 100 µM, the TGI [54] was over 100 µM and the TGI [48] was over 100 µM. It also gave a TGI [55] of over 100 µM, a TGI [56] of over 100 µM and a TGI [49] of over 100 µM. The TGI [23] was over 100 µM, the TGI [24] was over 100 µM and the TGI [25] was over 100 µM. For the same compound, the TGI [26] was over 100 µM, the TGI [27] was over 100 µM and the TGI [28] was over 100 µM. For the same compound, the TGI [50] was over 100 µM, the TGI [57] was over 100 µM and the TGI [29] was over 100 µM. For the same compound, the TGI [30] was over 100 µM, the TGI [31] was over 100 µM and the TGI [32] was over 100 µM. For the same compound, the TGI [51] was over 100 µM, the TGI [33] was over 100 µM and the TGI [34] was over 100 µM. It also gave a TGI [35] of over 100 µM, a TGI [37] of over 100 µM and a TGI [52] of over 100 µM. It also gave a TGI [38] of over 100 µM, a TGI [39] of over 100 µM and a TGI [53] of over 100 µM.
